Source: ChEMBL document CHEMBL4118194, “Molecular modeling, synthesis, antibacterial and cytotoxicity evaluation of sulfonamide derivatives of benzimidazole, indazole, benzothiazole and thiazole” (Bioorg Med Chem, 2018)
pIC50: −log10 of the molar value. ≈ marks a conversion by molar mass, not a printed value.

Experiments:
PBMC = assay: Cytotoxicity against human PBMC assessed as decrease in cell viability after 5 days by MTT assay; format: cell-based; conditions: 120 h
Escherichia coli [1] = assay: Antibacterial activity against wild type Escherichia coli NCIM 2065 after 24 hrs by broth micro dilution method; format: functional; conditions: NCIM 2065, 24 h
Pseudomonas aeruginosa [2] = assay: Antibacterial activity against Pseudomonas aeruginosa NCIM 2036 after 24 hrs by broth micro dilution method; format: functional; conditions: NCIM 2036, 24 h
Escherichia coli [3] = assay: Antibacterial activity against Escherichia coli U-621 mutant after 24 hrs by broth micro dilution method; format: functional; conditions: U-621, 24 h
Staphylococcus aureus [4] = assay: Antibacterial activity against Staphylococcus aureus NCIM 2079 after 24 hrs by broth micro dilution method; format: functional; conditions: NCIM 2079, 24 h
CCRF-CEM = assay: Cytotoxicity against human CEM cells assessed as decrease in cell viability after 5 days by MTT assay; format: cell-based; conditions: 120 h
Vero = assay: Cytotoxicity against African green monkey Vero cells assessed as decrease in cell viability after 3 days by MTT assay; format: cell-based; conditions: Chlorocebus sabaeus, 72 h
Bacillus cereus [5] = assay: Antibacterial activity against Bacillus cereus NCIM 2156 after 24 hrs by broth micro dilution method; format: functional; conditions: NCIM 2156, 24 h
Escherichia coli [6] = assay: Synergistic antibacterial activity against wild type Escherichia coli NCIM 2065 assessed as fractional inhibitory concentration at 0.5 times MIC after 24 hrs in presence of 0.0976 to […] chloramphenicol by broth micro dilution method; format: functional
Escherichia coli [7] = assay: Potency index, ratio of chloramphenicol MIC to compound MIC for wild type Escherichia coli NCIM 2065; format: functional
Pseudomonas aeruginosa [8] = assay: Potency index, ratio of chloramphenicol MIC to compound MIC for Pseudomonas aeruginosa NCIM 2036; format: functional
Escherichia coli [9] = assay: Synergistic antibacterial activity against wild type Escherichia coli NCIM 2065 assessed as fractional inhibitory concentration at 0.5 times MIC after 24 hrs in presence of 0.0976 to […] sulfamethoxazole by broth micro dilution method; format: functional
Escherichia coli [10] = assay: Synergistic antibacterial activity against wild type Escherichia coli NCIM 2065 at 0.5 times MIC after 24 hrs in presence of 0.0976 to […] chloramphenicol by broth micro dilution method; format: functional; conditions: NCIM 2065, 24 h
Escherichia coli [11] = assay: Potency index, ratio of sulfamethoxazole MIC to compound MIC for Escherichia coli U-621 mutant; format: functional
Pseudomonas aeruginosa [12] = assay: Synergistic antibacterial activity against Pseudomonas aeruginosa NCIM 2036 at 0.5 times MIC after 24 hrs in presence of 0.0976 to […] chloramphenicol by broth micro dilution method; format: functional; conditions: NCIM 2036, 24 h
Pseudomonas aeruginosa [13] = assay: Synergistic antibacterial activity against Pseudomonas aeruginosa NCIM 2036 assessed as fractional inhibitory concentration at 0.5 times MIC after 24 hrs in presence of 0.0976 to […] chloramphenicol by broth micro dilution method; format: functional
Escherichia coli [14] = assay: Potency index, ratio of […] MIC to compound MIC for Escherichia coli U-621 mutant; format: functional
Pseudomonas aeruginosa [15] = assay: Synergistic antibacterial activity against Pseudomonas aeruginosa NCIM 2036 assessed as fractional inhibitory concentration at 0.5 times MIC after 24 hrs in presence of 0.0976 to […] sulfamethoxazole by broth micro dilution method; format: functional
Pseudomonas aeruginosa [16] = assay: Synergistic antibacterial activity against Pseudomonas aeruginosa NCIM 2036 at 0.5 times MIC after 24 hrs in presence of 0.0976 to […] sulfamethoxazole by broth micro dilution method; format: functional; conditions: NCIM 2036, 24 h
Escherichia coli [17] = assay: Synergistic antibacterial activity against wild type Escherichia coli NCIM 2065 at 0.5 times MIC after 24 hrs in presence of 0.0976 to […] sulfamethoxazole by broth micro dilution method; format: functional; conditions: NCIM 2065, 24 h
Bacillus cereus [18] = assay: Synergistic antibacterial activity against Bacillus cereus NCIM 2156 assessed as fractional inhibitory concentration at 0.37 to 50 ug/ml after 24 hrs in presence of […] chloramphenicol by broth micro dilution method; format: functional
Pseudomonas aeruginosa [19] = assay: Synergistic antibacterial activity against Pseudomonas aeruginosa NCIM 2036 assessed as fractional inhibitory concentration at 0.37 to 50 ug/ml after 24 hrs in presence of […] sulfamethoxazole by broth micro dilution method; format: functional
Pseudomonas aeruginosa [20] = assay: Synergistic antibacterial activity against Pseudomonas aeruginosa NCIM 2036 at 0.37 to 50 ug/ml after 24 hrs in presence of […] sulfamethoxazole by broth micro dilution method; format: functional; conditions: NCIM 2036, 24 h
Bacillus cereus [21] = assay: Synergistic antibacterial activity against Bacillus cereus NCIM 2156 assessed as fractional inhibitory concentration at 0.37 to 50 ug/ml after 24 hrs in presence of […] sulfamethoxazole by broth micro dilution method; format: functional
Staphylococcus aureus [22] = assay: Synergistic antibacterial activity against Staphylococcus aureus NCIM 2079 at 0.37 to 50 ug/ml after 24 hrs in presence of […] sulfamethoxazole by broth micro dilution method; format: functional; conditions: NCIM 2079, 24 h
Staphylococcus aureus [23] = assay: Synergistic antibacterial activity against Staphylococcus aureus NCIM 2079 at 0.37 to 50 ug/ml after 24 hrs in presence of […] chloramphenicol by broth micro dilution method; format: functional; conditions: NCIM 2079, 24 h
Pseudomonas aeruginosa [24] = assay: Synergistic antibacterial activity against Pseudomonas aeruginosa NCIM 2036 at 0.37 to 50 ug/ml after 24 hrs in presence of […] chloramphenicol by broth micro dilution method; format: functional; conditions: NCIM 2036, 24 h
Staphylococcus aureus [25] = assay: Synergistic antibacterial activity against Staphylococcus aureus NCIM 2079 assessed as fractional inhibitory concentration at 0.37 to 50 ug/ml after 24 hrs in presence of […] chloramphenicol by broth micro dilution method; format: functional
Staphylococcus aureus [26] = assay: Synergistic antibacterial activity against Staphylococcus aureus NCIM 2079 assessed as fractional inhibitory concentration at 0.37 to 50 ug/ml after 24 hrs in presence of […] sulfamethoxazole by broth micro dilution method; format: functional
Bacillus cereus [27] = assay: Synergistic antibacterial activity against Bacillus cereus NCIM 2156 at 0.37 to 50 ug/ml after 24 hrs in presence of […] chloramphenicol by broth micro dilution method; format: functional; conditions: NCIM 2156, 24 h
Pseudomonas aeruginosa [28] = assay: Synergistic antibacterial activity against Pseudomonas aeruginosa NCIM 2036 assessed as fractional inhibitory concentration at 0.37 to 50 ug/ml after 24 hrs in presence of […] chloramphenicol by broth micro dilution method; format: functional
Bacillus cereus [29] = assay: Synergistic antibacterial activity against Bacillus cereus NCIM 2156 at 0.37 to 50 ug/ml after 24 hrs in presence of […] sulfamethoxazole by broth micro dilution method; format: functional; conditions: NCIM 2156, 24 h
Escherichia coli [30] = assay: Synergistic antibacterial activity against wild type Escherichia coli NCIM 2065 assessed as fractional inhibitory concentration at 0.37 to 50 ug/ml after 24 hrs in presence of […] sulfamethoxazole by broth micro dilution method; format: functional
Escherichia coli [31] = assay: Potency index, ratio of sulfamethoxazole MIC to compound MIC for wild type Escherichia coli NCIM 2065; format: functional
Escherichia coli [32] = assay: Synergistic antibacterial activity against wild type Escherichia coli NCIM 2065 at 0.37 to 50 ug/ml after 24 hrs in presence of […] sulfamethoxazole by broth micro dilution method; format: functional; conditions: NCIM 2065, 24 h
Pseudomonas aeruginosa [33] = assay: Synergistic antibacterial activity against Pseudomonas aeruginosa NCIM 2036 at 0.5 times MIC after 24 hrs in presence of 0.0976 to […] chloramphenicol by broth micro dilution method relative to compound alone; format: functional

C[C@@H]1C[C@@H]([C@H](O)CC2CC(=O)NC(=O)C2)C(=O)[C@@H](C)C1 [CYCLOHEXIMIDE]
pIC50 (PBMC): 6.05 | MIC (Escherichia coli [1]): 12.5 mg/L (≈ 44.4 µM) | MIC (Pseudomonas aeruginosa [2]): 12.5 mg/L (≈ 44.4 µM) | MIC (Escherichia coli [3]): 50 mg/L (≈ 178 µM) | MIC (Staphylococcus aureus [4]): 12.5 mg/L (≈ 44.4 µM) | pIC50 (CCRF-CEM): 6.70 | pIC50 (Vero): 6.70 | MIC (Bacillus cereus [5]): 12.5 mg/L (≈ 44.4 µM)

O=[N+]([O-])c1ccc(S(=O)(=O)n2ncc3cc([N+](=O)[O-])ccc32)cc1
FIC (Escherichia coli [6]): 0.06 | Ratio (Escherichia coli [7]): 2 | Ratio (Pseudomonas aeruginosa [8]): 2 | MIC (Escherichia coli [1]): 3.1 mg/L (≈ 8.9 µM) | FIC (Escherichia coli [9]): 0.03 | MIC (Pseudomonas aeruginosa [2]): 3.1 mg/L (≈ 8.9 µM) | MIC (Escherichia coli [10]): 0.195 mg/L | MIC (Escherichia coli [3]): 12.5 mg/L (≈ 35.9 µM) | MIC (Staphylococcus aureus [4]): 6.2 mg/L (≈ 17.8 µM) | Ratio (Escherichia coli [11]): 4 | MIC (Pseudomonas aeruginosa [12]): 0.195 mg/L | FIC (Pseudomonas aeruginosa [13]): 0.06 | Ratio (Escherichia coli [14]): 4 | FIC (Pseudomonas aeruginosa [15]): 0.06 | MIC (Pseudomonas aeruginosa [16]): 0.195 mg/L | MIC (Bacillus cereus [5]): 6.2 mg/L (≈ 17.8 µM) | MIC (Escherichia coli [17]): 0.0976 mg/L

O=S(=O)(c1ccc(Cl)cc1)n1cnc2ccccc21
FIC (Escherichia coli [6]): 0.12 | Ratio (Escherichia coli [7]): 2 | pIC50 (PBMC): < 4.00 | FIC (Bacillus cereus [18]): 0.24 | FIC (Pseudomonas aeruginosa [19]): 0.24 | MIC (Escherichia coli [1]): 3.1 mg/L (≈ 10.6 µM) | FIC (Escherichia coli [9]): 0.03 | MIC (Pseudomonas aeruginosa [20]): 3.1 mg/L | MIC (Pseudomonas aeruginosa [2]): 12.5 mg/L (≈ 42.7 µM) | MIC (Escherichia coli [10]): 0.391 mg/L | FIC (Bacillus cereus [21]): 0.24 | MIC (Escherichia coli [3]): 50 mg/L (≈ 171 µM) | MIC (Staphylococcus aureus [22]): 3.1 mg/L | MIC (Staphylococcus aureus [4]): 12.5 mg/L (≈ 42.7 µM) | pIC50 (CCRF-CEM): < 4.21 | MIC (Staphylococcus aureus [23]): 3.1 mg/L | MIC (Pseudomonas aeruginosa [24]): 3.1 mg/L | FIC (Staphylococcus aureus [25]): 0.24 | pIC50 (Vero): < 4.00 | FIC (Staphylococcus aureus [26]): 0.12 | MIC (Bacillus cereus [27]): 6.2 mg/L | FIC (Pseudomonas aeruginosa [28]): 0.24 | MIC (Bacillus cereus [29]): 6.2 mg/L | MIC (Bacillus cereus [5]): 25 mg/L (≈ 85.4 µM) | MIC (Escherichia coli [17]): 0.0976 mg/L

Cc1cc(NS(=O)(=O)c2ccc(N)cc2)no1 [SULFAMETHOXAZOLE]
MIC (Escherichia coli [1]): 3.1 mg/L (≈ 12.2 µM) | MIC (Pseudomonas aeruginosa [2]): 3.1 mg/L (≈ 12.2 µM) | MIC (Escherichia coli [3]): 25 mg/L (≈ 98.7 µM) | MIC (Staphylococcus aureus [4]): 6.2 mg/L (≈ 24.5 µM) | MIC (Bacillus cereus [5]): 6.2 mg/L (≈ 24.5 µM)

Cc1ccc(S(=O)(=O)n2cnc3ccccc32)cc1
FIC (Escherichia coli [6]): 0.12 | pIC50 (PBMC): < 4.00 | FIC (Escherichia coli [30]): 0.5 | FIC (Bacillus cereus [18]): 0.25 | FIC (Pseudomonas aeruginosa [19]): 0.24 | MIC (Escherichia coli [1]): 6.2 mg/L (≈ 22.8 µM) | MIC (Pseudomonas aeruginosa [20]): 6.2 mg/L | MIC (Pseudomonas aeruginosa [2]): 25 mg/L (≈ 91.8 µM) | MIC (Escherichia coli [10]): 0.781 mg/L | FIC (Bacillus cereus [21]): 0.24 | MIC (Escherichia coli [3]): 50 mg/L (≈ 184 µM) | MIC (Staphylococcus aureus [22]): 6.2 mg/L | Ratio (Escherichia coli [31]): 2 | MIC (Staphylococcus aureus [4]): 25 mg/L (≈ 91.8 µM) | pIC50 (CCRF-CEM): ≤ 4.00 | MIC (Staphylococcus aureus [23]): 12.5 mg/L | MIC (Pseudomonas aeruginosa [24]): 6.2 mg/L | FIC (Staphylococcus aureus [25]): 0.5 | pIC50 (Vero): < 4.00 | FIC (Staphylococcus aureus [26]): 0.49 | MIC (Bacillus cereus [27]): 12.5 mg/L | FIC (Pseudomonas aeruginosa [28]): 0.24 | MIC (Escherichia coli [32]): 3.1 mg/L | MIC (Bacillus cereus [29]): 6.2 mg/L | MIC (Bacillus cereus [5]): 50 mg/L (≈ 184 µM)

O=S(=O)(Nc1nccs1)c1ccc(Cl)cc1
FIC (Escherichia coli [6]): 0.06 | pIC50 (PBMC): < 4.00 | FIC (Pseudomonas aeruginosa [19]): 0.24 | MIC (Escherichia coli [1]): 3.1 mg/L (≈ 11.3 µM) | FIC (Escherichia coli [9]): 0.06 | MIC (Pseudomonas aeruginosa [20]): 1.5 mg/L | MIC (Pseudomonas aeruginosa [2]): 6.2 mg/L (≈ 22.6 µM) | MIC (Escherichia coli [10]): 0.195 mg/L | MIC (Escherichia coli [3]): 25 mg/L (≈ 91 µM) | MIC (Staphylococcus aureus [4]): 6.2 mg/L (≈ 22.6 µM) | pIC50 (CCRF-CEM): < 4.00 | Ratio (Escherichia coli [11]): 4 | MIC (Pseudomonas aeruginosa [12]): 0.195 mg/L | pIC50 (Vero): 5.21 | FIC (Pseudomonas aeruginosa [13]): 0.03 | Ratio (Escherichia coli [14]): 4 | MIC (Bacillus cereus [5]): 3.1 mg/L (≈ 11.3 µM) | fold change (FC) (Pseudomonas aeruginosa [33]): 32 | MIC (Escherichia coli [17]): 0.195 mg/L

O=C(N[C@H](CO)[C@H](O)c1ccc([N+](=O)[O-])cc1)C(Cl)Cl [CHLORAMPHENICOL]
MIC (Escherichia coli [1]): 6.2 mg/L (≈ 19.2 µM) | MIC (Pseudomonas aeruginosa [2]): 6.2 mg/L (≈ 19.2 µM) | MIC (Escherichia coli [3]): 50 mg/L (≈ 155 µM) | MIC (Staphylococcus aureus [4]): 6.2 mg/L (≈ 19.2 µM) | MIC (Bacillus cereus [5]): 6.2 mg/L (≈ 19.2 µM)
